Measured values published in patent US7232827B2, “Heteroaryl substituted 2-pyridinyl and 2-pyrimidinyl-6,7,8,9-tetrahydropyrimido[1,2-a]pyrimidin-4-one derivatives” (Sanofi-Aventis, priority 2002, dated 2007).

Target: GSK3β (Homo sapiens, UniProt P49841)
Test: Inhibitory activity against GSK3β (33P-ATP phosphorylation of prephosphorylated GS1 peptide)
Type: biochemical
Conditions: single compounds; first or second protocol not specified
Protocol: Two different protocols can be used.
In a first protocol: 7.5 μM of prephosphorylated GS1 peptide and 10 μM ATP (containing 300,000 cpm of 33P-ATP) were incubated in 25 mM Tris-HCl, pH 7.5, 0.6 mM DTT, 6 mM MgCl2, 0.6 mM EGTA, 0.05 mg/ml BSA buffer for 1 hour at room temperature in the presence of GSK3β (total reaction volume: 100 microliters).
In a second protocol: 4.1 μM of prephosphorylated GS1 peptide and 42 μM ATP (containing 260,000 cpm 33P-ATP) were incubated in 80 mM Mes-NaOH, pH 6.5, 1 mM Mg acetate, 0.5 mM EGTA, 5 mM 2-mercaptoethanol, 0.02% Tween 20, 10% glycerol buffer for 2 hours at room temperature in the presence of GSK3β.
Inhibitors were solubilised in DMSO (final solvent concentration in the reaction medium, 1%).
The reaction was stopped with 100 microliters of a solution made of 25 g polyphosphoric acid (85% P2O5), 126 ml 85% H3PO4, H2O to 500 ml and then diluted to 1:100 before use. An aliquot of the reaction mixture was then transferred to Whatman P81 cation exchange filters and rinsed with the solution described above. Incorporated 33P radioactivity was determined by liquid scintillation spectrometry.
The phosphorylated GS-1 peptide had the following sequence: NH2-[…](P)EDEE-COOH.

Sequence of GSK3β (P49841 whole entry, species assumed): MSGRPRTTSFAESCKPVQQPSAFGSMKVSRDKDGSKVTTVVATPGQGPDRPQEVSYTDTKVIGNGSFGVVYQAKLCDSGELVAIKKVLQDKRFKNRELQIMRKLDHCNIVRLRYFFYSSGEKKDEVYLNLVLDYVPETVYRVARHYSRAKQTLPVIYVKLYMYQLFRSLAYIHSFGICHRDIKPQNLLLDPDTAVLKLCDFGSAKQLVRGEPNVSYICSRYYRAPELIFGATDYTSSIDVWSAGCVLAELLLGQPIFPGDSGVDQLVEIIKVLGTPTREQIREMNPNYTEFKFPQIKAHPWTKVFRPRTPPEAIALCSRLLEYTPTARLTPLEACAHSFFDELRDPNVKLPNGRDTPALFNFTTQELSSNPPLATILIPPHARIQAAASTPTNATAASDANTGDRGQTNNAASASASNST

IC50 | Compound
8 nM | Cc1ccc2c(n1)CC(CN1CC(C)(C)Cn3c1nc(-c1ccncc1)cc3=O)C2 (racemic) [compound 4 of table 1A, (+/−)-7,7-Dimethyl-9-(2-methyl-6,7-dihydro-5H-[1]pyrindin-6-ylmethyl) -2-(pyridin-4-yl)-6,7,8,9-tetrahydro-pyrimido[1,2-a]pyrimidin-4-one]
15 nM | CC1CCn2c(nc(-c3ccncn3)cc2=O)N1CC1COc2ccccc2O1 (centres unmarked) [compound 8 of table 2B, 9-(2,3-Dihydro-benzo[1,4]dioxin-2-ylmethyl)-8-methyl-2-pyrimidin-4-yl-6,7,8,9-tetrahydro-pyrimido[1,2-a]pyrimidin-4-one]
